# Structures can show the parent of a compound that is named as a salt. Where two headings read alike, the source gives them in different places.
# Target: T1, recombinant human liver glycogen phosphorylase (Homo sapiens, UniProt P06737)
# T1 construct: made in house; host or cells: Sf9 insect cells (crude homogenate, diluted, used as the enzyme solution)
# T1 sequence (P06737 1-847): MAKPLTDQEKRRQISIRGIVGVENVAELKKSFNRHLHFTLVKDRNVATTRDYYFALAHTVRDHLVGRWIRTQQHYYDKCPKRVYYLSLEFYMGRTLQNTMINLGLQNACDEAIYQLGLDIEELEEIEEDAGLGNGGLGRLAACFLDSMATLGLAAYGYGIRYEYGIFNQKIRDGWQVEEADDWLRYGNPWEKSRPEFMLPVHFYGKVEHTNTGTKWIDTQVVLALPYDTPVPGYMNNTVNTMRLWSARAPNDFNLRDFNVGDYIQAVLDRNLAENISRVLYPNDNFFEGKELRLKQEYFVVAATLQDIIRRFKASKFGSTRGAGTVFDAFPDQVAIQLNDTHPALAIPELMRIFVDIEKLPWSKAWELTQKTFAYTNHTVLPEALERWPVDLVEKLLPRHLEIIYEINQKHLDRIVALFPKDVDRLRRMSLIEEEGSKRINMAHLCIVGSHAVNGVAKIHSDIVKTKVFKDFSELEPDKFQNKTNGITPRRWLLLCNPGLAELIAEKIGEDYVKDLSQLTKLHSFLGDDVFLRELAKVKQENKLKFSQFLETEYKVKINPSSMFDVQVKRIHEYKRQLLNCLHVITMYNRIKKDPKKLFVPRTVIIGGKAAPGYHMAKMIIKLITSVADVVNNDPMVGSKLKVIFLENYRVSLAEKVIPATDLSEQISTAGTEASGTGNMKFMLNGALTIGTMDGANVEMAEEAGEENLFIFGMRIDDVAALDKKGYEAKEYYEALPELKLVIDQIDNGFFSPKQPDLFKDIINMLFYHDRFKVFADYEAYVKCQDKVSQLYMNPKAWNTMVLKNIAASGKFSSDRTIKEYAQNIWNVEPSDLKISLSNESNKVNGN
# Assay: Measuring liver glycogen phosphorylase activity (forward reaction system, NADPH absorbance at 340 nm)
# Assay type: biochemical
# How it was run: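 Sf9 homogenate expressing the enzyme, in pH 6.8 BES/EDTA, with glycogen and phosphate substrate plus glucose, coupled via phosphoglucomutase/G6PDH to NADPH formation. A340 change over 75 min at room temperature, blank-corrected; IC50 linearly interpolated between the two concentrations bracketing 50% inhibition versus 1% DMSO control.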
# [1] = enzyme inhibitory activity with respect to liver glycogen phosphorylase, class symbols
# [2] = human liver glycogen phosphorylase, class symbol
# [3] = compound concentration 100 nmol (in parentheses), read-out: inhibition rate (%) at a certain concentration
# [4] = compound concentration 300 nmol (in parentheses), read-out: inhibition rate (%) at a certain concentration
# [5] = figure in brackets (300), read-out: IC50 column: % value printed with (300)
SMILES,IC50 [1] [nM],also measured
"Cc1nc(C)c(CNC(=O)c2cc(NC(=O)c3cc(F)c(F)cc3Cl)[nH]n2)o1 [Example 1-2-2, 5-(2-chloro-4,5-difluoro-benzoylamino)-1H-pyrazole-3-carboxylic acid (2,4-dimethyl-oxazol-5-ylmethyl)-amide p-toluenesulfonate]",< 100,–
CC(=N)Nc1ccc(CNC(=O)c2cc(NC(=O)c3cc(F)c(F)cc3Cl)[nH]n2)cc1 [Example 6-32],–,IC50 [2]: < 100 nM
O=C(N[C@@H]1c2ccccc2C[C@@H]1O)c1cc(NC(=O)c2cc(F)c(F)cc2Cl)[nH]n1 [Example 2-30],–,inhibition at 0.1 µM [3]: 1.8%
CN(C(=O)c1cc(NC(=O)c2cc(F)c(F)cc2Cl)[nH]n1)c1ccc(C(=O)OCOC(=O)C(C)(C)C)cc1 [Example 6-13],–,"inhibition at 0.1 µM (figure in brackets (100), read-out: IC50: % value given with (100)): 17.5%"
CC(=O)Nc1ccc(CNC(=O)c2cc(NC(=O)c3cc(F)c(F)cc3Cl)[nH]n2)cc1 [Example 2-18],< 100,–
CCc1ccc(CNC(=O)c2cc(NC(=O)c3cc(F)c(F)cc3Cl)[nH]n2)cc1 [Example 1-34],< 100,–
O=C(NCc1cc(F)cc(F)c1)c1cc(NC(=O)c2cc(F)c(F)cc2Cl)[nH]n1 [Example 1-23],< 100,–
CC(C)(C)c1cnc(CNC(=O)c2cc(NC(=O)c3cc(F)c(F)cc3Cl)[nH]n2)s1 [Example 1-60],< 100,–
O=C(NCc1ccc(N2CCS(=O)(=O)CC2)nc1)c1cc(NC(=O)c2cc(F)c(F)cc2Cl)[nH]n1 [Example 1-154],< 100,–
CCOc1cc(C(C)(C)C(=O)O)cnc1NC(=O)c1cc(NC(=O)c2cc(F)c(F)cc2Cl)[nH]n1 [Example 1-151],–,inhibition rate (%) at a certain concentration (compound concentration 100 nmol (in parentheses)): 13.3%(100)
CC(C)(C)OC(=O)NCc1ccnc(CNC(=O)c2cc(NC(=O)c3cc(F)c(F)cc3Cl)[nH]n2)c1 [Example 1-62],< 100,–
O=C(Nc1ccccc1N1CCOCC1)c1cc(NC(=O)c2cc(F)c(F)cc2Cl)[nH]n1 [Example 1-92],–,inhibition at 0.3 µM [4]: 11.7%
CCOc1cc(C(C)(C)C(=O)O)cnc1NC(=O)c1cc(NC(=O)c2cc(F)c(F)cc2Cl)[nH]n1 [Example 1-150],–,inhibition at 0.1 µM [3]: 13.8%
CN(C)CCNC(=O)c1ccc(CNC(=O)c2cc(NC(=O)c3cc(F)c(F)cc3Cl)[nH]n2)cc1 [Example 1-33],< 100,–
CN(C(=O)c1cc(NC(=O)c2cc(F)c(Cl)cc2Cl)[nH]n1)c1ccc(C(N)=O)cc1 [Example 6-2],–,inhibition at 0.3 µM [5]: 12.3%
O=C(NCc1ccccc1)c1cc(NC(=O)c2ccc(Cl)nc2Cl)[nH]n1 [Example 4-39],–,inhibition at 0.3 µM [4]: 5.3%
O=C(NC(c1ccccc1)c1ccccc1)c1cc(NC(=O)c2cc(F)c(F)cc2Cl)[nH]n1 [Example 3-19],–,"inhibition at 1 µM (compound concentration 1000 nmol (in parentheses), read-out: inhibition rate (%) at a certain concentration): 9.2%"
Nc1cc(F)c(F)cc1CNC(=O)c1cc(NC(=O)c2cc(F)c(F)cc2Cl)[nH]n1 [Example 6-40],–,IC50 [2]: < 100 nM
CCCN(C(=O)c1cc(NC(=O)c2cc(F)c(F)cc2Cl)[nH]n1)C1CCN(C(=O)CCC(=O)O)CC1 [Example 1-125],< 100,–
"O=C(NCc1nnc[nH]1)c1cc(NC(=O)c2cc(F)c(F)cc2Cl)[nH]n1 [Example 2-2-1, 5-(2-chloro-4,5-difluoro-benzoylamino)-1H-pyrazole-3-carboxylic acid (4H-[1,2,4]triazol-3-ylmethyl)-amide dihydrochloride]",< 100,–
CN(C)C(=O)c1ccc(N(C)C(=O)c2cc(NC(=O)c3cc(F)c(Cl)cc3Cl)[nH]n2)cc1 [Example 6-4],–,inhibition at 0.3 µM [5]: 46.8%
O=C(NCc1ccc(-c2cccs2)s1)c1cc(NC(=O)c2cc(F)c(F)cc2Cl)[nH]n1 [Example 1-159],100 to 300,–
O=C(NCc1ccccc1)c1cc(NC(=O)c2ccncc2Cl)[nH]n1 [Example 4-44],–,inhibition at 0.1 µM [3]: 5.7%

# Second part, led by results:
IC50 [1] [nM],SMILES,also measured
< 100,O=C(NCCN1CCOCC1)c1ccc(CNC(=O)c2cc(NC(=O)c3cc(F)c(F)cc3Cl)[nH]n2)cc1 [Example 5-4],–
100 to 300,O=C(O)CCN(C(=O)c1cc(NC(=O)c2cc(F)c(F)cc2Cl)[nH]n1)c1ccccc1 [Example 4-27],–
< 100,CN1CCN(c2ccc(CNC(=O)c3cc(NC(=O)c4cc(F)c(F)cc4Cl)[nH]n3)cn2)CC1 [Example 5-39],–

# From patent US20070032529A1, “Pyrazole compounds and their use as antidiabetes agents” (Japan Tobacco Inc., priority 2005, published 2007)
